# According to patent US20250041293A1, “AN IGF1R INHIBITOR AND AN AKT INHIBITOR FOR USE IN THE TREATMENT OF CANCER” (Genome Research Limited, priority 2022, published 2025):
# Where two headings read alike, the source gives them in different places.
# How the values were obtained:
# [1] = target: Akt2 (Homo sapiens, UniProt P31751); details: assay format not stated; cited from earlier work
# [2] = target: Akt1 (Homo sapiens, UniProt P31749); details: cited from earlier work
# [3] = target: Akt3 (Homo sapiens, UniProt Q9Y243); details: assay format not stated; cited from earlier work
# [4] = tested on: MAPK1/2; details: cited from earlier work
# [5] = tested on: Mek; details: cited from earlier work
# [6] = tested on: Akt1/2, Aurora A/B,B-Raf, CDK2, and EGFR; details: cited from earlier work
# [7] = tested on: FGF-R, PDGF-R, or EGF-R; details: for example FGF-R; cited from earlier work
# [8] = target: IR (Homo sapiens, UniProt P06213); details: cited from earlier work
# [9] = target: IGF1R (Homo sapiens, UniProt P08069); details: assay format not stated; cited from earlier work
# [10] = target: insulin receptor (IR) (Homo sapiens, UniProt P06213); details: assay format not stated; cited from earlier work
# [11] = tested on: PKC; details: cited from earlier work
# [12] = tested on: colon cancer cell lines; assay: Anchored 2x7 combination viability screen (CellTiter-Glo, 72 h), colon cancer cell lines; assay type: cell-based; details: in combination with MK-2206, colon; compared with Linsitinib+MK-2206
# Description: To screen efficiently we used a 2×7 concentration matrix, or “anchored” approach. We screened each anchor compound at two optimised concentrations and a discontinuous 1,000-fold (7-point) dose-response curve of the library compound. Viability was read out after 72 h of drug treatment using CellTiter-Glo and drug responses for single agent and combination responses were fitted. […] The combination was screened in both anchor and library orientations, the first named compound being the anchor compound.
# [13] = tested on: PKA; details: cited from earlier work
# [14] = phase I, patients with multiple myeloma; cited from earlier work
# [15] = target: ABL T3151 (Homo sapiens, UniProt P00519, T315I); details: cell-free assays; cited from earlier work
# [16] = weekly 1-hr IV infusions; patients with solid tumours or multiple myeloma; cited from earlier work
# [17] = target: LYN (Homo sapiens, UniProt P07948); details: cell-free assays; cited from earlier work
# [18] = target: SRC (Homo sapiens, UniProt P12931); details: cell-free assays; cited from earlier work
# Chain of SRC (P12931 whole entry): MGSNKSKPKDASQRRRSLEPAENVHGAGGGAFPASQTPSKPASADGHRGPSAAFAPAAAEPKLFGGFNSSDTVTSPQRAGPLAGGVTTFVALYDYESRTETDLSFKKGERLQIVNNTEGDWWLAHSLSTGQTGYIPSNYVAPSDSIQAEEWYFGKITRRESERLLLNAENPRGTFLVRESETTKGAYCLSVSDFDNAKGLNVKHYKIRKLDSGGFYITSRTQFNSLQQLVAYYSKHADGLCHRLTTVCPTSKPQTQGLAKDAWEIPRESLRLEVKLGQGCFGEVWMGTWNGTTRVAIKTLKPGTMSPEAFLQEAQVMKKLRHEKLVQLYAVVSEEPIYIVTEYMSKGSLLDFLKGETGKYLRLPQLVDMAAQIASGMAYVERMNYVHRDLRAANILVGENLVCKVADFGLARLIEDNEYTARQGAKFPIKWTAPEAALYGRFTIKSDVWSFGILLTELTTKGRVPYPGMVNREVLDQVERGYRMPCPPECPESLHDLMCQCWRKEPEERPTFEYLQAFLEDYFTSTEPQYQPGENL
# Chain of Akt1 (P31749 whole entry): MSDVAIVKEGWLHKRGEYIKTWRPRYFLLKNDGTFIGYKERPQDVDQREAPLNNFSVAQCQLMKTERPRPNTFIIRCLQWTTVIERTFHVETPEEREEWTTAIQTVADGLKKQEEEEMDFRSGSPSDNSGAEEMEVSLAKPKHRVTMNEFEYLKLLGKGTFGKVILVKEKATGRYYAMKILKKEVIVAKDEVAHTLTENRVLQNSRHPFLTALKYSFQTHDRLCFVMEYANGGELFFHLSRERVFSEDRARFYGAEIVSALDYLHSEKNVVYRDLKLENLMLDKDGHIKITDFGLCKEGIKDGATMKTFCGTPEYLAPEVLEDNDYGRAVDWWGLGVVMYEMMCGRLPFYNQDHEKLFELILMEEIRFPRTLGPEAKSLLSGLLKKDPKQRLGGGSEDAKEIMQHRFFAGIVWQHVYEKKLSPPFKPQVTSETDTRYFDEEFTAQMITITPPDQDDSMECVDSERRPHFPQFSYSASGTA
# Chain of Akt2 (P31751 whole entry): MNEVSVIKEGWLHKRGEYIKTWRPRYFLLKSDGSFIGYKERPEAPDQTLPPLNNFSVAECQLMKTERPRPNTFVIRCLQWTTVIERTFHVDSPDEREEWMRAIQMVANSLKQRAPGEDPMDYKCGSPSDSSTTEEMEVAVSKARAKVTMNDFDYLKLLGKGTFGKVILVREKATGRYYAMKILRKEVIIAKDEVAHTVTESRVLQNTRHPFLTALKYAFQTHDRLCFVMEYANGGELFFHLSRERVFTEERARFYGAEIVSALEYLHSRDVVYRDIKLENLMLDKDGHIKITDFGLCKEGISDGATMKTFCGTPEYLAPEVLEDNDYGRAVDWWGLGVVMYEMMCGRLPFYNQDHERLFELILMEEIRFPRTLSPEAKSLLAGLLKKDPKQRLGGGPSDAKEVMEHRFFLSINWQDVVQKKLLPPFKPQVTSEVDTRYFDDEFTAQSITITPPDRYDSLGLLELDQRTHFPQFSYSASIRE
# Chain of IGF1R (P08069 31-1367): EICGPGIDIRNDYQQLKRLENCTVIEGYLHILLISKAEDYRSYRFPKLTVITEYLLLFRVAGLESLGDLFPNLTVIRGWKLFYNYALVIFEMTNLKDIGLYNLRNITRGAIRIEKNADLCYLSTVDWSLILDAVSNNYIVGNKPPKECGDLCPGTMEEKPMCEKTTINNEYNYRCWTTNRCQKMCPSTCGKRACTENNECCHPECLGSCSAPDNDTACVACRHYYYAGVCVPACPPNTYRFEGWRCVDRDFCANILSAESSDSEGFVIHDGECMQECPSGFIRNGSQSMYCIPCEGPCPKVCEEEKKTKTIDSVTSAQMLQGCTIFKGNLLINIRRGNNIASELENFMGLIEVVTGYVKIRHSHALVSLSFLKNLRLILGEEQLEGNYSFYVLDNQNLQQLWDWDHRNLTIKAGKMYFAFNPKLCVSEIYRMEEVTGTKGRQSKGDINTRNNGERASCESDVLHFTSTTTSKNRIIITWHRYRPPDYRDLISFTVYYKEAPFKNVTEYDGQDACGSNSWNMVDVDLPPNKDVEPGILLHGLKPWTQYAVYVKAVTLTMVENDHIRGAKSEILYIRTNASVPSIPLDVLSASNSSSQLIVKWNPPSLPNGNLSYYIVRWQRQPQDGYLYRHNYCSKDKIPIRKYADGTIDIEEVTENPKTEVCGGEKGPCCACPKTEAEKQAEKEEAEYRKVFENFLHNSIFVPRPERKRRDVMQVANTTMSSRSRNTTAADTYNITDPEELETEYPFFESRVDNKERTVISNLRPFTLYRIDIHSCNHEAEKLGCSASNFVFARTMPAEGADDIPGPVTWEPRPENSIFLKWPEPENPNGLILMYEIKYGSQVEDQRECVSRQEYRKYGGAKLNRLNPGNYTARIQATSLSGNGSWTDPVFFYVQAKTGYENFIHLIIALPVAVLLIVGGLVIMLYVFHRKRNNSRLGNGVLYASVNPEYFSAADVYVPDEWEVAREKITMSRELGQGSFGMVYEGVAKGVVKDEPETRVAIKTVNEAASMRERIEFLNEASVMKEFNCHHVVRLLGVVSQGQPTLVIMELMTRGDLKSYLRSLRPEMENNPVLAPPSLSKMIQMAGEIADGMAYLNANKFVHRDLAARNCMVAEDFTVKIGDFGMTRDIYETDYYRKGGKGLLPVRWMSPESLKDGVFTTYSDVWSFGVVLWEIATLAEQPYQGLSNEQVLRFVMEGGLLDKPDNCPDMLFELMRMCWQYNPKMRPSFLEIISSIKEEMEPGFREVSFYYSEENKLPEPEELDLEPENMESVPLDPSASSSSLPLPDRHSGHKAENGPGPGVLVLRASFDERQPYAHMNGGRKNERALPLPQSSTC
# Chain of Akt3 (Q9Y243 whole entry): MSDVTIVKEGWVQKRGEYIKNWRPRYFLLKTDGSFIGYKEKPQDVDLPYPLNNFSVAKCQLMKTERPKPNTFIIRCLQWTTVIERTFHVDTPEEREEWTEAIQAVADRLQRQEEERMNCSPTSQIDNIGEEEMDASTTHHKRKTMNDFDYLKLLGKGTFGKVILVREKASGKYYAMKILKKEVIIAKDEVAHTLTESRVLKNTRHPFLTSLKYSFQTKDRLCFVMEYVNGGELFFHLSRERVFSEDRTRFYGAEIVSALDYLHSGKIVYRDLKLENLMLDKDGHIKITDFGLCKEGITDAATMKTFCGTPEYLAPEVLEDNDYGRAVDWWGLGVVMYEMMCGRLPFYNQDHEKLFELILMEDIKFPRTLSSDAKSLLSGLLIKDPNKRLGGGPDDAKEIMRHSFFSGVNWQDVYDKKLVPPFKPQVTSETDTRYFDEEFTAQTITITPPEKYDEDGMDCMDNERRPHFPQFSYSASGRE
# Chain of insulin receptor (IR) (P06213 28-1382): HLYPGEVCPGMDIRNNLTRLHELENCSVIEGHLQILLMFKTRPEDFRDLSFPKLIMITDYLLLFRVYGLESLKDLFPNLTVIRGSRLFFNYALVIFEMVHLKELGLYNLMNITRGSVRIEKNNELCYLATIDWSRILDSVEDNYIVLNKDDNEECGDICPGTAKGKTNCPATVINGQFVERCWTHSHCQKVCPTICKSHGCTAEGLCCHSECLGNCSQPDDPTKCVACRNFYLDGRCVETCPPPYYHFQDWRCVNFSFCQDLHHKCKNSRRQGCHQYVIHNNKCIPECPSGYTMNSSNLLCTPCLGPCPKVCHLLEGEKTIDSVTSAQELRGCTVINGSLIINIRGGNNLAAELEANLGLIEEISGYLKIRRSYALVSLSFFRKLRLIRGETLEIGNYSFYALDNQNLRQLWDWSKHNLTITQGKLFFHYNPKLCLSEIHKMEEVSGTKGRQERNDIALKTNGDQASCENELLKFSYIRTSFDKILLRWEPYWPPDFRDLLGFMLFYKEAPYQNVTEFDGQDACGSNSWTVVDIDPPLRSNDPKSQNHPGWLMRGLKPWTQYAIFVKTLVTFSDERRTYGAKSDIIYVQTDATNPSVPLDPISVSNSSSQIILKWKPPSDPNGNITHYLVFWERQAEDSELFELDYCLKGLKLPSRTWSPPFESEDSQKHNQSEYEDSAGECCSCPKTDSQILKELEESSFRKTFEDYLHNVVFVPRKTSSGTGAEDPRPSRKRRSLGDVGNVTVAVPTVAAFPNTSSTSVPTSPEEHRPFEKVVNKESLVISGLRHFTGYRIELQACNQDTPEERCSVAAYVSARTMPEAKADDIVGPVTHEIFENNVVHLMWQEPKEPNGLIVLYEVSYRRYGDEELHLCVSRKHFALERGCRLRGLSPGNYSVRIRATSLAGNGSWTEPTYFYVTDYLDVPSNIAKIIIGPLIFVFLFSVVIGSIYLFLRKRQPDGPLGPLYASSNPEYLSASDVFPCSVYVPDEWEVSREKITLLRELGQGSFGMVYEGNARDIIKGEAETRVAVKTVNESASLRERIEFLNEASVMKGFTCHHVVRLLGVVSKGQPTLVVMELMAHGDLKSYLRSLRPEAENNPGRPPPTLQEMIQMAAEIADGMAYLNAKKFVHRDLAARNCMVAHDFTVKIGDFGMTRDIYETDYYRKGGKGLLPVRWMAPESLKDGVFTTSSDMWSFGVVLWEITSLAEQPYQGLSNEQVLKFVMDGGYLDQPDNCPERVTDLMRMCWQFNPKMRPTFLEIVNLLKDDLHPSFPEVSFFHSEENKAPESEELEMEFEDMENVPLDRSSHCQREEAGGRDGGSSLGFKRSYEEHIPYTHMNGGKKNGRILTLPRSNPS
# Chain of IR (P06213 28-1382): as above
compound,measurement,setting,value
"C[C@]1(O)C[C@@](N)(c2ccc(-c3nc4n(c3-c3ccccc3)COc3ccncc3-4)cc2)C1 [TAS-117, 3-amino-1-methyl-3-[4-(5-phenyl-8-oxa-3,6,12-triazatricyclo[7.4.0.0^2,6]trideca-1(9),2,4,10,12-pentaen-4-yl)phenyl]cyclobutan-1-ol]",IC50,[1],1.6 nM
same,IC50,[2]; assay format not stated,4.8 nM
same,IC50,[3],44 nM
Cc1cc(N2CCOCC2)cc2[nH]c(-c3c(NC[C@@H](O)c4cccc(Cl)c4)cc[nH]c3=O)nc12 [BMS-536924],activity for MAPK1/2 (in words),[4],very little activity
same,activity for Akt1 (in words),[2],very little activity
same,IC50,[5],182 nM
"CCc1cc(Nc2nccc(-c3c(-c4ccc(OC)c(C(=O)Nc5c(F)cccc5F)c4)nc4ccccn34)n2)c(OC)cc1N1CCC(N2CCN(S(C)(=O)=O)CC2)CC1 [GSK1904529A, N-(2,6-difluorophenyl)-5-[3-[2-[5-ethyl-2-methoxy-4-[4-(4-methylsulfonylpiperazin-1-yl)-1-piperidyl]anilino]pyrimidin-4-yl]imidazo[1,2-a]pyridine-2-yl]-2-methoxy-benzamide]","selectivity for IGF1R/IR than Akt1/2, Aurora A/B, B-Raf, CDK2, and EGFR",[6],> 100 fold
"COc1cc([C@@H]2c3cc4c(cc3[C@H](O)[C@H]3COC(=O)[C@@H]23)OCO4)cc(OC)c1OC [AXL-1717, (5R,5aR,8aS,9R)-5-hydroxy-9-(3,4,5-trimethoxyphenyl)-5a,6,8a,9-tetrahydro-5H-[2]benzofuro[5,6-f][1,3]benzodioxol-8-one]",inhibition of tyrosine phosphorylation of a selected panel of receptors less related to IGF-IR (in words),[7],does not co-inhibit
same,inhibition of tyrosine phosphorylation of the IR (in words),[8],does not co-inhibit
Cc1ccsc1C(=O)Nc1cc(CN2CCN(C(=O)CO)CC2)ccc1/C=C/c1n[nH]c2ccccc12 [KW-2450],IC50,[9],7.39 nM
same,IC50,[10],5.64 nM
"C[C@@]1(C(=O)Nc2ccc(F)nc2)CCCN1c1nc(Nc2cc(C3CC3)[nH]n2)c2cccn2n1 [BMS-754807, 1-[4-[(5-cyclopropyl-1H-pyrazol-3-yl)amino]pyrrolo[2,1-f][1,2,4]triazin-2-yl]-N-(6-fluoro-3-pyridyl)-2-methyl-pyrrolidine-2-carboxamide]",activity to PKC (in words),[11],little activity
same,synergy and activity of the IGF1Ri combined with MK-2206 (in words),[12],much lower
same,activity to PKA (in words),[13],little activity
"Cn1ncc(Cl)c1-c1cc(C(=O)N[C@H](CN)Cc2cccc(F)c2)sc1Cl [Afuresertib, N-[(1S)-1-(aminomethyl)-2-(3-fluorophenyl)ethyl]-5-chloro-4-(4-chloro-2-methyl-pyrazol-3-yl)thiophene-2-carboxamide]",maximum tolerated dose (MTD),[14],125 mg per day
"CC(C)c1cc(CNc2nc(Nc3cc(C4CC4)[nH]n3)cc(N3CCN(C)CC3)n2)on1 [XL228, N4-(5-cyclopropyl-1H-pyrazol-3-yl)-N2-[(3-isopropylisoxazol-5-yl)methyl]-6-(4-methylpiperazin-1-yl)pyrimidine-2,4-diamine]",IC50,[15],1.4 nM
same,maximum tolerated dose (MTD),[16],6.5 mg/kg
same,IC50,[17],2 nM
same,IC50,[18],6.1 nM
